Tested on: Male NMRI mice
Assay: phenylquinone-induced writhing test in mice
Format: in vivo
Conditions: Mus musculus, iv, 10 mg/kg i.v., 10 minutes before phenylquinone i.p., writhing counted 5-20 minutes after phenylquinone, read-out: % inhibition of the writhing reactions (10 mg/kg i.v.)
Description: The antinociceptive activity of the compounds according to the invention was investigated in mice in the phenylquinone-induced writhing test, modified by I.C. Hendershot, J. Forsaith, J. Pharmacol. Exp. Ther. 125, 237-240 (1959). Male NMRI mice weighing 25-30 g were used. Groups of 10 animals per substance dose received 0.3 ml/mouse of a 0.02% aqueous solution of phenylquinone (phenylbenzoquinone, Sigma, Deisenhofen; preparation of the solution with the addition of 5% ethanol and storage in a water bath at 45° C.) administered intraperitoneally 10 minutes after intravenous administration of a compound according to the invention. The animals were placed individually in observation cages. The number of pain-induced stretching movements (so-called writhing reactions, that is straightening of the body with stretching of the hind extremities) was counted by means of a push-button counter for 5-20 minutes after the administration of phenylquinone. Animals which received physiological saline solution i.v. and phenylquinone […]. were also run as a control.
All substances were tested in the standard dose of 10 mg/kg. The percentage inhibition (% inhibition) of the writhing reactions by a substance was calculated according to the following equation:
% inhibition=100−(WRtreated animals/WRcontrol×100)

SMILES	inhibition in vivo at 10 mg/kg
COC(=O)c1cccc(C=C2CCC(CN(C)C)C(c3cccc(OC)c3)C2)c1 (racemic) [Compound 8, rac-trans-E-3-[4-dimethylaminomethyl-3-(3-methoxy-phenyl)-cyclohexylidenemethyl]-benzoic acid methyl ester]	98%
COc1cccc([C@@H]2C/C(=C\c3cccc(C(=O)O)c3)CC[C@H]2CN(C)C)c1 (racemic) [Compound 17, rac-trans-Z-3-[4-Dimethylaminomethyl-3-(3-methoxy-phenyl)-cyclohexylidenemethyl]-benzoic acid]	85%
COc1cccc([C@@H]2C/C(=C/c3cccc(C(=O)O)c3)CC[C@H]2CN(C)C)c1 (racemic) [Compound 18, rac-trans-E-3-[4-Dimethylaminomethyl-3-(3-methoxy-phenyl)-cyclohexylidenemethyl]-benzoic acid]	100%
CN(C)C[C@@H]1CC/C(=C\c2cccc(CO)c2)C[C@H]1c1cccc(O)c1 (racemic) [Compound 19, rac-trans-E-3-[2-dimethylaminomethyl-5-(3-hydroxymethyl-benzylidene)-cyclohexyl]-phenol]	82%
CN(C)C[C@@H]1CC/C(=C\c2ccccc2)C[C@H]1c1cccc(O)c1 (racemic) [Compound 20, rac-trans-E-3-(5-benzylidene-2-dimethylaminomethyl-cyclohexyl)-phenol]	84%
CN(C)C[C@@H]1CC/C(=C/c2ccccc2)C[C@H]1c1cccc(O)c1 (racemic) [Compound 23, rac-trans-Z-3-(5-Benzylidene-2-dimethylaminomethyl-cyclohexyl)-phenol]	88%
CCOC(=O)c1cccc(/C=C2/CC[C@H](CN(C)C)[C@H](c3cccc(OC)c3)C2)c1 (racemic) [Compound 30, rac-cis-Z-3-[4-Dimethylaminomethyl-3-(3-methoxy-phenyl)-cyclohexylidenemethyl]-benzoic acid ethyl ester]	84%
CCN(CC)C(=O)c1cccc(/C=C2\CCC(CN(C)C)C(c3cccc(OC)c3)C2)c1 (racemic) [Compound 32]	100%
CCN(CC)C(=O)c1cccc(/C=C2/CC[C@@H](CN(C)C)[C@H](c3cccc(OC)c3)C2)c1 (racemic) [Compound 36, rac-trans-Z-3-[4-Dimethylaminomethyl-3-(3-methoxy-phenyl)-cyclohexylidenemethyl]-N,N-diethyl-benzamide]	100%
COc1cccc(C2=C/C(=C\c3cccc(C(=O)O)c3)CCC2CN(C)C)c1 (centres unmarked) [Compound 14, Z-3-[4-Dimethylaminomethyl-3-(3-methoxy-phenyl)-cyclohex-2-enylidenemethyl]-benzoic acid]	94%
COc1cccc(C2=C/C(=C/c3cccc(C(=O)O)c3)CCC2CN(C)C)c1 (centres unmarked) [Compound 15, E-3-[4-Dimethylaminomethyl-3-(3-methoxy-phenyl)-cyclohex-2-enylidenemethyl]-benzoic acid]	100%
COc1cccc(C2=C/C(=C/c3cccc(CO)c3)CCC2CN(C)C)c1 (centres unmarked) [Compound 16, E-{3-[4-dimethylaminomethyl-3-(3-methoxy-phenyl)-cyclohex-2-enylidenemethyl]-phenyl}-methanol]	98%
COc1cccc(C2=C/C(=C/c3cccc(C(=O)OC(C)(C)C)c3)CCC2CN(C)C)c1 (centres unmarked) [Compound 21, E-3-[4-Dimethylaminomethyl-3-(3-methoxy-phenyl)-cyclohex-2-enylidenemethyl]-benzoic acid tert-butyl ester]	79%
CN(C)CC1CC/C(=C\c2cccc(CO)c2)C=C1c1cccc(O)c1 (centres unmarked) [Compound 22, E-3-[6-Dimethylaminomethyl-3-(3-hydroxymethyl-benzylidene)-cyclohex-1-enyl]-phenol]	93%
CN(C)CC1=C(c2cccc(O)c2)C/C(=C\c2cccc(CO)c2)CC1 [Compound 24, Z-3-[2-dimethylaminomethyl-5-(3-hydroxymethyl-benzylidene)-cyclohex-1-enyl]-phenol]	100%
COc1cccc(C2=C/C(=C\c3cccc(CO)c3)CCC2CN(C)C)c1 (centres unmarked) [Compound 25, Z-{3-[4-Dimethylaminomethyl-3-(3-methoxy-phenyl)-cyclohex-2-enylidenemethyl]-phenyl}-methanol]	100%
CCOC(=O)c1cccc(/C=C2/C=C(c3cccc(OC)c3)C(CN(C)C)CC2)c1 (centres unmarked) [Compound 33, E-3-[4-Dimethylaminomethyl-3-(3-methoxy-phenyl)-cyclohex-2-enylidenemethyl]-benzoic acid ethyl ester]	90%
CCN(CC)C(=O)c1cccc(/C=C2\C=C(c3cccc(OC)c3)C(CN(C)C)CC2)c1 (centres unmarked) [Compound 34, Z-3-[4-Dimethylaminomethyl-3-(3-methoxy-phenyl)-cyclohex-2-enylidenemethyl]-N,N-diethyl-benzamide]	78%
COC(=O)c1cccc(/C=C2/C=C(c3cccc(O)c3)C(CN(C)C)CC2)c1 (centres unmarked) [Compound 37, E-3-[4-dimethylaminomethyl-3-(3-hydroxy-phenyl)-cyclohex-2-enylidenemethyl]-benzoic acid methyl ester]	91%
COc1cccc(C2=C/C(=C\c3cccc(C(=O)OCC(C)C)c3)CCC2CN(C)C)c1 (centres unmarked) [Compound 39, Z-3-[4-Dimethylaminomethyl-3-(3-methoxy-phenyl)-cyclohex-2-enylidenemethyl]-benzoic acid isobutyl ester]	78%
CN(C)CC1CC/C(=C/c2cccc(C(=O)O)c2)C=C1c1cccc(O)c1 (centres unmarked) [Compound 48, Z-3-[4-Dimethylaminomethyl-3-(3-hydroxy-phenyl)-cyclohex-2-enylidenemethyl]-benzoic acid]	98%

Same assay, conditions: mouse writhing test, 10 minutes before phenylquinone i.p., writhing counted 5-20 minutes after phenylquinone

SMILES	% inhibition of the writhing reactions (10 mg/kg i.v.)
COc1cccc([C@@H]2C/C(=C/c3cccc(C(=O)O)c3)CC[C@@H]2CN(C)C)c1.Cl (racemic) [Compound 26, rac-cis-E-3-[4-Dimethylaminomethyl-3-(3-methoxy-phenyl)-cyclohexylidenemethyl]-benzoic acid]	87%
CCN(CC)C(=O)c1cccc(/C=C2\CC[C@H](CN(C)C)[C@H](c3cccc(OC)c3)C2)c1.Cl (racemic) [Compound 35, rac-cis-E-3-[4-Dimethylaminomethyl-3-(3-methoxy-phenyl)-cyclohexylidenemethyl]-N,N-diethyl-benzamide]	100%
